The target in experiment [1] is D(1A) dopamine receptor (Homo sapiens, UniProt P21728).
For experiment [2], the target named is Beta-3 adrenergic receptor (Homo sapiens, UniProt P13945).
In experiment [3] the target is Voltage-dependent N-type calcium channel subunit alpha-1B (Rattus norvegicus, UniProt Q02294). Type of experiment: functional.
The target in experiment [4] is T1, Corticotropin-releasing factor receptor 1 (Homo sapiens, UniProt P34998).
T1 sequence (P34998 whole entry): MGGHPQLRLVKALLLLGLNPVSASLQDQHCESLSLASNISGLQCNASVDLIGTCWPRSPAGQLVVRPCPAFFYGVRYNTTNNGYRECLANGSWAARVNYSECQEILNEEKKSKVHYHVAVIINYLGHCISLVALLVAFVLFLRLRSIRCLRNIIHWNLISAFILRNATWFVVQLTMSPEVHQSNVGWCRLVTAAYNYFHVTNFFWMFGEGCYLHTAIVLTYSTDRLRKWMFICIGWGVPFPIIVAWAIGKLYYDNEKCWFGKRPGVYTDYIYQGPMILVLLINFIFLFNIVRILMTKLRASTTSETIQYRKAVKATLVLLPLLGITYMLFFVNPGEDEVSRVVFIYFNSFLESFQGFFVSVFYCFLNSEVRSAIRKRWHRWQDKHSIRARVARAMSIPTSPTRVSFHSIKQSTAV

Experiment [5] addresses Glucagon receptor (Homo sapiens, UniProt P47871).
Experiment [6] addresses T2, Gastric inhibitory polypeptide receptor (Homo sapiens, UniProt P48546).
T2 sequence (P48546 whole entry): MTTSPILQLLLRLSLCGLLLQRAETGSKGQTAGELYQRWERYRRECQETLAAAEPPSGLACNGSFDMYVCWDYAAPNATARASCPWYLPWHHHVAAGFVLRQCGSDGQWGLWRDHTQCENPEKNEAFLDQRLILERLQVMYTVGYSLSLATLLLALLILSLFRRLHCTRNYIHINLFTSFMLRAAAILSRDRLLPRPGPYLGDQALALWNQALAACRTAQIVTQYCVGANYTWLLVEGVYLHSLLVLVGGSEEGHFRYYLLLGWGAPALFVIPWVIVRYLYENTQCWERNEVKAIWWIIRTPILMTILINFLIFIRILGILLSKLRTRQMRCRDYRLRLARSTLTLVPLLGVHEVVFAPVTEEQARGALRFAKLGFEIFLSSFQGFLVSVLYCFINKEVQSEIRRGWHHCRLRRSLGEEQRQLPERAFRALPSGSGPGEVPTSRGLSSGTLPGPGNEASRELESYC

For experiment [7], the target named is T3, Neuropeptide Y receptor type 2 (Homo sapiens, UniProt P49146).
T3 sequence (P49146 whole entry): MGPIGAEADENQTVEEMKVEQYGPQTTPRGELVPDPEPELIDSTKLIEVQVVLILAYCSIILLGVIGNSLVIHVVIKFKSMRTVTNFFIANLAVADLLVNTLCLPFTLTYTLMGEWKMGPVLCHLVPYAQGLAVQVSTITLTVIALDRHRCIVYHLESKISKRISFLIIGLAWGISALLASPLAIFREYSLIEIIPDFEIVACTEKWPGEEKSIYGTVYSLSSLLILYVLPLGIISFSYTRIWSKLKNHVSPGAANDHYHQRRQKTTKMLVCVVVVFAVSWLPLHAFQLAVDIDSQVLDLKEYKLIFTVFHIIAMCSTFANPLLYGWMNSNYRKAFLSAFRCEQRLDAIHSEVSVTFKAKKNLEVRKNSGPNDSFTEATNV

Experiment [8] addresses T4, Alpha-2A adrenergic receptor (Homo sapiens, UniProt P08913).
T4 sequence (P08913 whole entry): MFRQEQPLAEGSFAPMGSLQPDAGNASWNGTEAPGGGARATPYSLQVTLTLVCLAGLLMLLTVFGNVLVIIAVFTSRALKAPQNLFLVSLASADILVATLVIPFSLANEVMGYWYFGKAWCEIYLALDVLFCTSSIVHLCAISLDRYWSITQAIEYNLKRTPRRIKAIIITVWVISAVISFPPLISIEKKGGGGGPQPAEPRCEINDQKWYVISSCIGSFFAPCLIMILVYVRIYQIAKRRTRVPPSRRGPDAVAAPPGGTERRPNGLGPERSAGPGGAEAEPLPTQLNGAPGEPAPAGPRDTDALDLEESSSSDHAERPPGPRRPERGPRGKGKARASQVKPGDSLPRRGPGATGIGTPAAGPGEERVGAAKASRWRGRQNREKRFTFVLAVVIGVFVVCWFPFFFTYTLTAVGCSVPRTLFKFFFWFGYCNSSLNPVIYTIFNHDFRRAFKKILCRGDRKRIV

The target of experiment [9] is T5, 5-hydroxytryptamine receptor 1A (Homo sapiens, UniProt P08908).
T5 sequence (P08908 whole entry): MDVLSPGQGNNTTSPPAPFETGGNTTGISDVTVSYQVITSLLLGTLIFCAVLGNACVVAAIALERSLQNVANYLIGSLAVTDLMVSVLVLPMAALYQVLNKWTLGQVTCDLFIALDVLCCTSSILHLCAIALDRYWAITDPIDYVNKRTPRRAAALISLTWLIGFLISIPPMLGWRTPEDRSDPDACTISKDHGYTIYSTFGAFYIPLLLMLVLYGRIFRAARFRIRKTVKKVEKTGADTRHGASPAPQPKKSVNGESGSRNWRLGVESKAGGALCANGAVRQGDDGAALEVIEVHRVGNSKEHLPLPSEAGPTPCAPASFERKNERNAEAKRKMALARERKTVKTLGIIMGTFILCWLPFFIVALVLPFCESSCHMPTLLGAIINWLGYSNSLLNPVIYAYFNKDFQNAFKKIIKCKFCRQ

The target of experiment [10] is T6, Muscarinic acetylcholine receptor M2 (Homo sapiens, UniProt P08172).
T6 sequence (P08172 whole entry): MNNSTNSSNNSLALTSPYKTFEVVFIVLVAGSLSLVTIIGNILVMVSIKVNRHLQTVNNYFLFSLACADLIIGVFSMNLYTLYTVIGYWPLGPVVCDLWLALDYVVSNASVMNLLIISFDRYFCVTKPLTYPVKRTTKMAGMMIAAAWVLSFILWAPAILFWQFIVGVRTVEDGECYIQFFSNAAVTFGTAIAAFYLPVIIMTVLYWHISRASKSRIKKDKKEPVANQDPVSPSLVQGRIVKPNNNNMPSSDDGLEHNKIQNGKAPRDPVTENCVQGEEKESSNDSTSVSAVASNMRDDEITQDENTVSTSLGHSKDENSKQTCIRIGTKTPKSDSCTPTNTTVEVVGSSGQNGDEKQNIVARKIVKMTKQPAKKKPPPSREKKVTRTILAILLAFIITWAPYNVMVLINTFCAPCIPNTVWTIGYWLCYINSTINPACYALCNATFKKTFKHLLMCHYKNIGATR

Experiment [11] has as its target Beta-2 adrenergic receptor (Homo sapiens, UniProt P07550). Type of experiment: functional, cell-based.
Further: assay procedure not described here.

Beta-2 adrenergic receptor, sequence (P07550 whole entry): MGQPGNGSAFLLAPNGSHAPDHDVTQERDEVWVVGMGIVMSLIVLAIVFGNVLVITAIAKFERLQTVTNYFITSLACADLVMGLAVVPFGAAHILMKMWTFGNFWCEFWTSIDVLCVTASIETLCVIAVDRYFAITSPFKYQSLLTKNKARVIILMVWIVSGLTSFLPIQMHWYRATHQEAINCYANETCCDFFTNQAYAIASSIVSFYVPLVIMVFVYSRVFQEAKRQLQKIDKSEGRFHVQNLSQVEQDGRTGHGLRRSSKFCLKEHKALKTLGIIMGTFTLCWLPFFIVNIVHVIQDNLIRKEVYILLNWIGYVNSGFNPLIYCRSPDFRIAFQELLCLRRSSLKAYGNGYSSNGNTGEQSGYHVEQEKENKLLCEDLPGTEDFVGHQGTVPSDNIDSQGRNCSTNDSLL
Beta-3 adrenergic receptor, sequence (P13945 whole entry): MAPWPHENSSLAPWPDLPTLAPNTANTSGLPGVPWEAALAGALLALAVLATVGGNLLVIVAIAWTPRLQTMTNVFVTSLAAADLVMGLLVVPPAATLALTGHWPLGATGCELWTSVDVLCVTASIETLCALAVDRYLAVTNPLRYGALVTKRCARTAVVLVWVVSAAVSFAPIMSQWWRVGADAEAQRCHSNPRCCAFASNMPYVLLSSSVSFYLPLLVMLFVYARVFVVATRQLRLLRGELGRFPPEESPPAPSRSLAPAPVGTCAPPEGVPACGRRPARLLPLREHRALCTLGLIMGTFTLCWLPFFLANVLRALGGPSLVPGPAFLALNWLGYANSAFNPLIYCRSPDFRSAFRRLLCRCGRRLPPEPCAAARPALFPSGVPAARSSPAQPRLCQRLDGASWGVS
D(1A) dopamine receptor, sequence (P21728 whole entry): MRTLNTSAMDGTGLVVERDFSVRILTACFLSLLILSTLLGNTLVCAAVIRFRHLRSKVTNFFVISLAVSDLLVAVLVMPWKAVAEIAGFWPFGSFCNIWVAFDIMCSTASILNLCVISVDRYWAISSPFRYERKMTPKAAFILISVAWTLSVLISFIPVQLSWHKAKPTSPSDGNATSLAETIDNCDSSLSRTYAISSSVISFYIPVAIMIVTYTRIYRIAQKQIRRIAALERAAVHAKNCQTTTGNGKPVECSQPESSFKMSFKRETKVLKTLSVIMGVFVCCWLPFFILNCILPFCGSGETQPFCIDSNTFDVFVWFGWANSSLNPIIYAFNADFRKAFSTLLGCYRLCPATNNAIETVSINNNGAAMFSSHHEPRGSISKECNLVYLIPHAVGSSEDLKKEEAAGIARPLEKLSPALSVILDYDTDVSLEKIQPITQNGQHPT
Voltage-dependent N-type calcium channel subunit alpha-1B, sequence (Q02294 whole entry): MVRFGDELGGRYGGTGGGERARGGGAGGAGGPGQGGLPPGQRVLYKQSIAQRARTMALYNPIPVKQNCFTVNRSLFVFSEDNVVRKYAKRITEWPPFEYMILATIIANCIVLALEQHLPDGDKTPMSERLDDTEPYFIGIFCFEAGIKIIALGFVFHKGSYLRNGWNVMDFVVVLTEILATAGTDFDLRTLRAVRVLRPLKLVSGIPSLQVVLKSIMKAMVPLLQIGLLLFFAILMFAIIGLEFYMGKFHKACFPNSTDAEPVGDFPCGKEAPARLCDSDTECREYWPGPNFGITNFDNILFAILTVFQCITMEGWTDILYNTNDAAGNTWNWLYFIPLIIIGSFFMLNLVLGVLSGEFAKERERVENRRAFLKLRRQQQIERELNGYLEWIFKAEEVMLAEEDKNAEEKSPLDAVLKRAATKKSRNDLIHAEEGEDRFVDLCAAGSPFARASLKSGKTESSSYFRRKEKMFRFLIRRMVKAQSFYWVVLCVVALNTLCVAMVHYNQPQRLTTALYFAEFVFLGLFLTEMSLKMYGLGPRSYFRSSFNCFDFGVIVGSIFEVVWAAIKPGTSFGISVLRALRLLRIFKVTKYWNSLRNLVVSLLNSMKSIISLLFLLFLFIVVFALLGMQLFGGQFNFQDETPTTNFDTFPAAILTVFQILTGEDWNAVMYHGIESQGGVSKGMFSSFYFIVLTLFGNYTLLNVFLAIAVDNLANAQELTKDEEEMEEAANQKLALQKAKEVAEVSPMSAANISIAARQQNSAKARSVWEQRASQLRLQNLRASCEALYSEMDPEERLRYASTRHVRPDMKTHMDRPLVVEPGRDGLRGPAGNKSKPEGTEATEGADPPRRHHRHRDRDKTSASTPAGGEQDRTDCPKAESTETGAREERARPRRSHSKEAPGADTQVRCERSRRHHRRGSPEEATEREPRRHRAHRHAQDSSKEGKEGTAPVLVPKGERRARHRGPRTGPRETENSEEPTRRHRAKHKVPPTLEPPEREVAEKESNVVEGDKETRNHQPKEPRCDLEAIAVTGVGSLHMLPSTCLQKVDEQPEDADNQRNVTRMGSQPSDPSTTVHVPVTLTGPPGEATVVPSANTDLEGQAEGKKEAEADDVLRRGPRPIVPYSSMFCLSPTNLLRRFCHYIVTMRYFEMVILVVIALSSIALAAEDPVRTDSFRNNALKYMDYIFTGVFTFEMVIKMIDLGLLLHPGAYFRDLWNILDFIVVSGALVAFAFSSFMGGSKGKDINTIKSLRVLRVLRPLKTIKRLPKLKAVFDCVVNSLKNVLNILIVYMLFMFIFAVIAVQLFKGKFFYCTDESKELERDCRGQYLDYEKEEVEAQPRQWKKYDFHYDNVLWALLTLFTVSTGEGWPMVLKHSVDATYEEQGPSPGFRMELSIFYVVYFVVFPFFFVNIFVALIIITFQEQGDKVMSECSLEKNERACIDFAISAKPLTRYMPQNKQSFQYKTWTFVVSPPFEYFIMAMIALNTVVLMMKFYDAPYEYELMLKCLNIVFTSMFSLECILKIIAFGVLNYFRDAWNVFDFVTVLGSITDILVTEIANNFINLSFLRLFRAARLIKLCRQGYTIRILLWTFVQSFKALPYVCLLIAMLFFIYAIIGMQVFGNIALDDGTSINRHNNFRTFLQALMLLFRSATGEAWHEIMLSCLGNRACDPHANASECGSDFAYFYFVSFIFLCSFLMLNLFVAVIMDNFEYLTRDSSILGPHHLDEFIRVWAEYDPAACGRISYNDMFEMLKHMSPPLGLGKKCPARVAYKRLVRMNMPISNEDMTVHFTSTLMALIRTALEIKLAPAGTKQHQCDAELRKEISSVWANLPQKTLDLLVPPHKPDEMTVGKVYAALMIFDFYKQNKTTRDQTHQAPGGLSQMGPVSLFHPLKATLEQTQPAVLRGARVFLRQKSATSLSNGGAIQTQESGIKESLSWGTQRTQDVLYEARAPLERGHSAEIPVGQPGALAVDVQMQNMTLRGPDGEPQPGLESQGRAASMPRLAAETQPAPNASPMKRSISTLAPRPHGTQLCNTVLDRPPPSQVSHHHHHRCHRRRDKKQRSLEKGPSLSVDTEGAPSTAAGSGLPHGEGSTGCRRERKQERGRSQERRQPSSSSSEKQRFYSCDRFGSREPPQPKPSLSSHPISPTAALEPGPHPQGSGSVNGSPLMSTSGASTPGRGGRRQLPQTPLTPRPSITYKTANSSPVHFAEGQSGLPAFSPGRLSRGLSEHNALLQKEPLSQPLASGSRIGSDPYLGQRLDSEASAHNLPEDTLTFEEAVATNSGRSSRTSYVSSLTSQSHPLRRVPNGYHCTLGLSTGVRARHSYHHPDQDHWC
Glucagon receptor, sequence (P47871 whole entry): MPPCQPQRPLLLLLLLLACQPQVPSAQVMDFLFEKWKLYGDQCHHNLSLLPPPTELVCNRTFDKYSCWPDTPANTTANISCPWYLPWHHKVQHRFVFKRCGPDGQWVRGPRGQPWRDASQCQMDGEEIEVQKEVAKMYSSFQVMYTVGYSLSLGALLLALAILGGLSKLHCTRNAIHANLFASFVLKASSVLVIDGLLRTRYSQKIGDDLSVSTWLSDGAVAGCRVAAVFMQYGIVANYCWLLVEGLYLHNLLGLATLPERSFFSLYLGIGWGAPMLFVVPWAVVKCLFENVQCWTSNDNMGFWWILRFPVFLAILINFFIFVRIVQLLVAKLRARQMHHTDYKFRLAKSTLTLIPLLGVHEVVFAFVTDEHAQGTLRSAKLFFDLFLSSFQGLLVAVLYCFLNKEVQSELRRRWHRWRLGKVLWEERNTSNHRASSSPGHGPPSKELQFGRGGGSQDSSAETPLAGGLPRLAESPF

For the compound `CCCCCCCC(=O)N[C@H](CN1CCCC1)[C@H](O)c1ccc2c(c1)OCCO2`, in experiment [1], the half-maximal activity concentration (AC50) was above 30 µM.

With `C[C@]1(COc2ccc(N3CCC(Oc4ccc(OC(F)(F)F)cc4)CC3)cc2)Cn2cc([N+](=O)[O-])nc2O1`, the AC50 in [2] was above 30 µM; in [3], above 10 µM; in [4], above 30 µM; in experiment [5] it was above 30 µM; in experiment [6], above 30 µM; in experiment [7], above 30 µM. In addition, the AC50 in [8], in experiment [9] and in experiment [10] was above 10 µM each time.

In the case of `CC(=O)OCC[N+](C)(C)C` [ACETYLCHOLINE], the half-maximal activity concentration (AC50) in experiment [2] was above 30 µM; in experiment [3], above 10 µM; in experiment [4] it was above 30 µM; in experiment [5], above 30 µM; in experiment [6] it was above 30 µM; in experiment [7], above 30 µM. For the same compound, the AC50 in experiment [8] and in experiment [9] was above 10 µM in each case.

As to `O=C(Nc1nc(-c2cc(Cl)cs2)c(N2CCN(C3CCCCC3)CC2)s1)c1cnc(N2CCC(C(=O)O)CC2)c(Cl)c1` [AVATROMBOPAG], the AC50 is above 10 µM in [3]; above 30 µM in experiment [1]; above 10 µM in [7]; above 10 µM in experiment [8]; above 10 µM in [9]; above 10 µM in experiment [10].

For `C[C@H]1C[C@H]2[C@@H]3CCC4=CC(=O)C=C[C@]4(C)[C@@]3(Cl)[C@@H](O)C[C@]2(C)[C@@]1(O)C(=O)CO` [BECLOMETHASONE], the AC50 in experiment [2] is above 30 µM; in experiment [3], above 10 µM; in experiment [4], above 30 µM; in experiment [5], above 30 µM; in experiment [6], above 30 µM; in experiment [7], above 30 µM. Also, the AC50 in experiment [8], in experiment [9] and in experiment [10] was above 10 µM throughout.

For `CO[C@@]1(NC(=O)CSCC#N)C(=O)N2C(C(=O)O)=C(CSc3nnnn3C)CS[C@@H]21` [CEFMETAZOLE], the concentration at half-maximal activity (AC50) in experiment [11] and in experiment [1] was above 30 µM throughout.

`CO/N=C(\C(=O)N[C@@H]1C(=O)N2C(C(=O)[O-])=C(C[n+]3cccc4c3CCC4)CS[C@H]12)c1csc(N)n1` [CEFPIROME]: in experiment [11], the concentration at half-maximal activity (AC50) is above 30 µM.

Compound `CC[C@H]1OC(=O)[C@H](C)[C@@H](O[C@H]2C[C@@](C)(OC)[C@@H](O)[C@H](C)O2)[C@H](C)[C@@H](O[C@@H]2O[C@H](C)C[C@H](N(C)C)[C@H]2O)[C@](C)(OC)C[C@@H](C)C(=O)[C@H](C)[C@@H](O)[C@]1(C)O` [CLARITHROMYCIN] displayed a half-maximal activity concentration (AC50) in experiment [11] above 30 µM.

On to `Oc1c(I)cc(Cl)c2cccnc12` [CLIOQUINOL], for which the concentration at half-maximal activity (AC50) in [11] was above 10 µM; in [1] it was above 30 µM.

`COc1ccc2c(c1)[C@]13CCCC[C@@H]1[C@H](C2)N(C)CC3` [DEXTROMETHORPHAN]: the concentration at half-maximal activity (AC50) was above 30 µM in experiment [2]; above 10 µM in experiment [3]; above 30 µM in experiment [4]; above 30 µM in [5]; above 30 µM in experiment [6]; above 30 µM in experiment [7]. In addition, the AC50 was 11.2 µM in experiment [8], above 10 µM in [9] and above 10 µM in experiment [10].

`CCn1cc(C(=O)O)c(=O)c2cc(F)c(N3CCNCC3)nc21` [ENOXACIN]: the AC50 is above 30 µM in [2]; above 10 µM in experiment [3]; above 30 µM in experiment [4]; above 30 µM in [5]; above 30 µM in experiment [6]; above 30 µM in experiment [7]. Moreover, the AC50 in experiment [8], in experiment [9] and in [10] was above 10 µM each time.

With `CCC(=O)O[C@@H]1CC(=O)O[C@H](C)C/C=C/C=C/[C@H](OC(C)=O)[C@H](C)C[C@H](CC=O)[C@H](O[C@@H]2O[C@H](C)[C@@H](O[C@H]3C[C@@](C)(OC(C)=O)[C@@H](OC(=O)CC)[C@H](C)O3)[C@H](N(C)C)[C@H]2O)[C@H]1OC` [MIOCAMYCIN], the AC50 in experiment [1] was above 30 µM.

Consider `CNC(=O)Oc1ccc2c(c1)[C@]1(C)CCN(C)[C@@H]1N2C` [PHYSOSTIGMINE], for which the AC50 in experiment [11] was above 30 µM.

`C1CNCCN1` [PIPERAZINE] displayed a half-maximal activity concentration (AC50) in [1] above 30 µM.

The compound `CNCCCC1c2ccccc2C=Cc2ccccc21` [PROTRIPTYLINE] returned a half-maximal activity concentration (AC50) in experiment [10] of 0.653 µM.

As to `COCCCOc1ccnc(C[S+]([O-])c2nc3ccccc3[nH]2)c1C` (configuration not stated) [RABEPRAZOLE], the AC50 in [2] is above 30 µM; in experiment [3], above 10 µM; in experiment [4] it was above 30 µM; in experiment [5], above 30 µM; in experiment [6] it was above 30 µM; in experiment [7], above 30 µM. Moreover, the half-maximal activity concentration (AC50) in [8], in experiment [9] and in experiment [10] was above 10 µM throughout.

In experiment [11], `O=C(CCCN1CCC2(CC1)C(=O)NCN2c1ccccc1)c1ccc(F)cc1` [SPIPERONE] registered an AC50 above 30 µM.

On to `OCCN1CCN(CC/C=C2/c3ccccc3Sc3ccc(Cl)cc32)CC1` [ZUCLOPENTHIXOL], for which half-maximal activity in experiment [8] (AC50) was put at 7.34 µM.

What is called AC50 is the concentration giving half of the maximal activity seen.

These data come from ChEMBL document CHEMBL5291721, “A preclinical secondary pharmacology resource illuminates target-adverse drug reaction associations of marketed drugs” (Nat Commun, 2023).
